The values that follow are results of earlier work, collected in patent publication US10398705B2, “Pharmaceutical tablet formulation for the veterinary medical sector, method of production and use thereof” (BOEHRINGER INGELHEIM VETMEDICA GMBH, priority 2012, dated 2019).

For this data set the following is noted: known property; background description.

SMILES strings stand for the structures.

For the compound `COc1ccc(-c2nc3ccc(C4=NNC(=O)CC4C)cc3[nH]2)cc1` (racemic) [pimobendan, (RS)-6-[2-(4-methoxyphenyl)-1H-benzimidazol-5-yl]-5-methyl-4,5-dihydropyridazin-3(2H)-one], the solubility entry is “poor and pH-dependent solubility”. As to `CCOC(=O)[C@H](CCc1ccccc1)N[C@H]1CCc2ccccc2N(CC(=O)O)C1=O` (relative stereo) [benazepril, [S—(R*,R*J]-3-[[1-(ethoxycarbonyl)-3-phenylpropyl]amino]-2,3,4,5-tetrahydro-2-oxo-1H-1-benzazepin-1-acetic acid], the solubility result was “well water-soluble”.
